Assay results published in patent publication US10660882B2, “Prophylactic or therapeutic agent for giant cell tumors occurring in bone and soft tissue or for chondrosarcoma” (NIPPON CHEMIPHAR CO., LTD., priority 2012, dated 2020).

How the values were obtained:
GCT cultured cells [1] = assay: Cell proliferation of GCT cultured cells, Cell Counting Kit-8, absorbance at 450 nm; assay type: cell-based, human; conditions: GCT cultured cells case 1, case 2
Description: (§1) GCT cultured cells (case 1, patient with osteoclastoma in a distal part of the right femur; case 2, patient with osteoclastoma in a distal part of the right femur) were cultured on a 96-well culture plate, zaltoprofen was added to the cells at various concentrations (5, 10, 50, 100, and 200 μM), color development was attained with Cell Counting Kit-8 (CCK-8) (Dojindo) 24 hours thereafter, and absorbance was measured at 450 nm 3 hours thereafter (FIG. 1).
In the same manner as that of Example 1, the GOT cultured cells (case 1, case 2) were cultured, a non-steroidal anti-inflammatory agent (acetaminophen, indomethacin, or diclofenac) or troglitazone was added at various concentrations, and absorbance was measured at 450 nm (FIGS. 12 and 13).
(§2) In the same manner as that of Example 1, the GCT cultured cells (case 1, case 2), the cells derived from giant cell tumor of tendon sheath (GCT of tendon sheath), or the cells derived from pigmented villonodular synovitis (diffuse-type GCT) were cultured, and then pioglitazone, a thiazolidine derivative, was added at various concentrations, and absorbance was measured at 450 nm (FIG. 32).

[2] = system: chondrosarcoma-derived cell line (H-EMC-SS); assay: Cell proliferation of chondrosarcoma-derived cell line, CCK-8; assay type: cell-based; conditions: various concentrations
osteoclastoma (GCT) [3] = assay: Tunel assay of operational excision sample of GCT patient administered with zaltoprofen; assay type: in vivo, human; conditions: 3 tablets per day (80 mg) for about 28 days
Description: (§3) An operational excision sample of a person who had been administered with 3 tablets per day of the zaltoprofen tablets, Soleton Tablet 80 (generic name: zaltoprofen, 80 mg, Nippon Chemiphar) for about 28 days for pain due to the tumor, and then subjected to the operation, and an operational excision sample of a patient with osteoclastoma not administered with zaltoprofen as a control were subjected to caspase 3 staining and Tunel assay, and analyzed for the presence or absence of apoptosis. Observation was performed with a fluorescence microscope (BZ-9000) produced by Keyence (FIG. 10). As a result, almost no Tunel-positive cells and caspase 3-positive cells were observed among the cells derived from the GCT patient not administered with zaltoprofen, whilst Tunel-positive cells and caspase 3-positive cells were observed among the cells derived from the patient administered with zaltoprofen.

[4] = system: pigmented villonodular synovitis; assay: MRI and symptom evaluation of patients with recurrence of pigmented villonodular synovitis in the right knee administered with zaltoprofen; assay type: in vivo, human; conditions: person, 3 tablets per day
Description: (§4) Soleton Tablet 80 (generic name: zaltoprofen, 80 mg, Nippon Chemiphar) was administered to a patient with osteoclastoma, a patient with giant cell tumor of tendon sheath, or a patient with pigmented villonodular synovitis at a dose of 3 tablets per day (administered in morning, at noon, and in evening), and the tumor size was evaluated by MRI every several months.

PPARγ [5] = assay: PPARγ immunostaining of cells derived from giant cell tumor of tendon sheath; assay type: cell-based, human; conditions: 400 μM
[6] = system: cells derived from pigmented villonodular synovitis; assay: Fat cell differentiation of cells derived from pigmented villonodular synovitis, lipid stain; assay type: cell-based, human; conditions: 400 μM, compared with control
Description: (§5) It has been reported that PPARγ is a transcription factor indispensable for fat cell differentiation. Therefore, the GCT cultured cells of the aforementioned case 1 were cultured on chamber cover slide glass, and when they reached confluent, zaltoprofen was added to the cells at various concentrations (10, 50, and 100 μM). From 24 hours thereafter, the cells were cultured in a fat cell differentiation-inducing medium (STREMPRO Adipogenesis Differentiation Kit, Invitrogen) for 7 to 14 days, and differentiation into fat cells was analyzed with HCS LipidTOX Green Neutral Lipid Stain (Invitrogen) (FIGS. 8 and 9).
(§6) As described in Example 3, it has been reported that PPARγ is a transcription factor indispensable for fat cell differentiation. Therefore, zaltoprofen was added at a concentration of 400 μM to the cells derived from giant cell tumor of tendon sheath or the cells derived from pigmented villonodular synovitis, and differentiation into fat cells was analyzed (FIGS. 30 and 31). As a result, it was successfully observed that the positive images obtained with HCS LipidTOX Green Neutral Lipid Stain increased in the zaltoprofen-added cells compared with the control.

caspase 3 [7] = assay: Caspase 3 staining of cultured cells of pigmented villonodular synovitis; assay type: cell-based, human; conditions: 400 μM, compared with control
Description: (§7) Further, the aforementioned GCT cultured cells of the case 1 were cultured on chamber cover slide glass, and zaltoprofen was added at different concentrations (100, and 200 μM) 24 hours afterward. Then, 8 hours and 24 hours afterward, the cells were fixed with 4% paraformaldehyde, staining with caspase 3 and Tunel assay were performed, and presence or absence of apoptosis was analyzed. Observation was performed with a fluorescence microscope (BZ-9000) of Keyence, and positive images for each concentration were quantitatively observed (FIGS. 2 to 5). […] Further, in the same manner as that of Example 1, the cultured cells of giant cell tumor of tendon sheath and the cultured cells of pigmented villonodular synovitis were subjected to staining with caspase 3 and Tunel assay, and presence or absence of apoptosis was analyzed (FIGS. 18 to 25). As a result, it was observed that the Tunel-positive ratio and caspase 3-positive ratio increased in the cells added with zaltoprofen at a concentration of 400 μM or troglitazone at a concentration of 2000 μM compared with those observed for the control.

osteoclastoma (GCT) [8] = assay: Fat cell differentiation in operational excision sample of GCT patient administered with zaltoprofen; assay type: in vivo, human; conditions: 3 tablets per day (80 mg) for about 28 days
Description: (§8) An operational excision sample of a person who had been administered with 3 tablets per day of the zaltoprofen tablets, Soleton Tablet 80 (generic name: zaltoprofen, 80 mg, Nippon Chemiphar) for about 28 days for pain due to the tumor, and then subjected to the operation, and an operational excision sample of a patient with osteoclastoma not administered with zaltoprofen as a control were subjected to staining of PPARγ, and expression of PPARγ was analyzed. Observation was performed with a fluorescence microscope (BZ-9000) of Keyence (FIG. 11).

PPARγ [9] = assay: PPARγ staining of operational excision sample of GCT patient administered with zaltoprofen; assay type: in vivo, human; conditions: 3 tablets per day (80 mg) for about 28 days
Description: as §8

PPARγ [10] = assay: PPARγ immunostaining of GCT cultured cells; assay type: cell-based, human; conditions: case 1; 10, 50, 100, and 200 μM; 24 hours
Description: The GCT cultured cells of the aforementioned case 1 were cultured on chamber cover slide glass, and 24 hours thereafter, zaltoprofen was added at various concentrations (10, 50, 100, and 200 μM). After 24 hours, the cells were fixed with 4% paraformaldehyde, and staining of PPARγ was performed. Observation was performed with a fluorescence microscope (BZ-9000) of Keyence, and positive images for each concentration were quantitatively observed (FIGS. 6 and 7).

caspase 3 [11] = assay: Caspase 3 staining of operational excision sample of GCT patient administered with zaltoprofen; assay type: in vivo, human; conditions: 3 tablets per day (80 mg) for about 28 days
Description: as §3

caspase 3 [12] = assay: Caspase 3 staining of GCT cultured cells; assay type: cell-based, human; conditions: case 1; 100 and 200 μM; 8 hours and 24 hours
Description: (§9) Further, the aforementioned GCT cultured cells of the case 1 were cultured on chamber cover slide glass, and zaltoprofen was added at different concentrations (100, and 200 μM) 24 hours afterward. Then, 8 hours and 24 hours afterward, the cells were fixed with 4% paraformaldehyde, staining with caspase 3 and Tunel assay were performed, and presence or absence of apoptosis was analyzed. Observation was performed with a fluorescence microscope (BZ-9000) of Keyence, and positive images for each concentration were quantitatively observed (FIGS. 2 to 5).

GCT cultured cells [13] = assay: Tunel assay of GCT cultured cells; assay type: cell-based, human; conditions: case 1; 100 and 200 μM; 8 hours and 24 hours
Description: as §9

[14] = system: cultured cells of giant cell tumor of tendon sheath; assay: Cell proliferation of cultured cells of giant cell tumor of tendon sheath, CCK-8; assay type: cell-based, human; conditions: various concentrations
Description: as §1, §2

[15] = system: cultured cells of pigmented villonodular synovitis; assay: Tunel assay of cultured cells of pigmented villonodular synovitis; assay type: cell-based, human; conditions: 400 μM, compared with control
Description: as §7

PPARγ [16] = assay: PPARγ immunostaining of chondrosarcoma-derived cell line; assay type: cell-based; conditions: 200 μM zaltoprofen
[17] = system: cultured cells of pigmented villonodular synovitis; assay: Cell proliferation of cultured cells of pigmented villonodular synovitis, CCK-8; assay type: cell-based, human; conditions: various concentrations
Description: as §1, §2

caspase 3 [18] = assay: Caspase 3 staining of chondrosarcoma-derived cell line; assay type: cell-based; conditions: 200 μM zaltoprofen, compared with control
Description: as §9
Further, in the same manner as that of Example 1, the chondrosarcoma-derived cell line was subjected to caspase 3 staining, and presence or absence of apoptosis was analyzed (FIGS. 46 and 47). As a result, it was successfully observed that the caspase 3-positive ratio increased in the cells added with zaltoprofen at a concentration of 200 μM, troglitazone at a concentration of 100 μM, or pioglitazone at a concentration of 200 μM, compared with the control.

PPARγ [19] = assay: PPARγ immunostaining of cells derived from pigmented villonodular synovitis; assay type: cell-based, human; conditions: 400 μM
[20] = system: cells derived from giant cell tumor of tendon sheath; assay: Fat cell differentiation of cells derived from giant cell tumor of tendon sheath, lipid stain; assay type: cell-based, human; conditions: 400 μM, compared with control
Description: as §5, §6

osteoclastoma = assay: MRI evaluation of patient with recurrence of osteoclastoma in the pelvic part administered with zaltoprofen; assay type: in vivo, human
Description: as §4

caspase 3 [21] = assay: Caspase 3 staining of cultured cells of giant cell tumor of tendon sheath; assay type: cell-based, human; conditions: 400 μM, compared with control
Description: as §7

[22] = system: cultured cells of giant cell tumor of tendon sheath; assay: Tunel assay of cultured cells of giant cell tumor of tendon sheath; assay type: cell-based, human; conditions: 400 μM, compared with control
Description: as §7

PPARγ [23] = assay: Effect of PPARγ siRNA on GCT cultured cells after addition of drug, CCK-8; assay type: cell-based, human; conditions: 200 μM; 72 hours; GCT cultured cells case 1, case 2
Description: The cells (case 1, case 2) were cultured on a 96-well culture plate, allowed to react with PPARγ siRNA, negative control siRNA, or only with the transfection reagents (Thermo Scientific DharmaFECT, Thermo Scientific) for 48 hours, and further cultured in a usual culture medium for 48 hours. Then, 200 μM of zaltoprofen or 60 μM of troglitazone was added to the cells, 72 hours thereafter, color development was performed with Cell Counting Kit-8 (CCK-8, Dojindo), and 3 hours thereafter, absorbance was measured at 450 nm (FIGS. 14 and 15).

GCT cultured cells [24] = assay: Fat cell differentiation of GCT cultured cells, HCS LipidTOX Green Neutral Lipid Stain; assay type: cell-based, human; conditions: case 1; 10, 50, and 100 μM; fat cell differentiation-inducing medium 7 to 14 days
Description: as §5

For `CC(=O)Nc1ccc(O)cc1` [acetaminophen], which “cell proliferation (absorbance at 450 nm)” value (GCT cultured cells [1]; various concentrations) is on record?
Its value is “suppressed in a non-steroidal anti-inflammatory agent concentration-dependent manner”.

Which “cell proliferation (absorbance at 450 nm)” value (GCT cultured cells [1]; various concentrations) does the source give for `O=C(O)Cc1ccccc1Nc1c(Cl)cccc1Cl` [diclofenac] here?
Its value is “suppressed in a non-steroidal anti-inflammatory agent concentration-dependent manner”.

With `COc1ccc2c(c1)c(CC(=O)O)c(C)n2C(=O)c1ccc(Cl)cc1` [indomethacin] as the compound, how does the “cell proliferation (absorbance at 450 nm)” value (GCT cultured cells [1]; various concentrations) read?
Its value is “suppressed in a non-steroidal anti-inflammatory agent concentration-dependent manner”.

`CC(C(=O)O)c1ccc2c(c1)CC(=O)c1ccccc1S2` (stereo not drawn) [zaltoprofen] was tested. Which “cell proliferation (absorbance)” value [2] did it give?
The value was “suppressed in a troglitazone, pioglitazone, or zaltoprofen concentration-dependent manner”.

What about the Tunel-positive cells (osteoclastoma (GCT) [3]) of the same compound?
The Tunel-positive cells was “observed”.

And the MRI imaging effect ([4]; after three months)?
The MRI imaging effect was “attenuation of the MRI imaging effect”.

What about the “tumor size evaluated by MRI” value ([4]; after two months) of the same compound?
Its value is “shrinkage of tumor”.

What about the “expression of PPARγ (PPARγ-positive images)” value (PPARγ [5]) of the same compound?
The value was “expression of PPARγ was successfully observed”.

And the “positive images obtained with HCS LipidTOX Green Neutral Lipid Stain (differentiation into fat cells)” value [6]?
The value was “increased”.

What about the “caspase 3-positive ratio” value (caspase 3 [7]) of the same compound?
The value was “increased”.

And the fat cell differentiation (osteoclastoma (GCT) [8])?
Its fat cell differentiation is “fat cell differentiation was observed”.

And the PPARγ-expressing cells (PPARγ [9])?
Its PPARγ-expressing cells is “PPARγ-expressing cells were observed”.

And the “expression of PPARγ (PPARγ-positive cells)” value (PPARγ [10])?
The value was “increased in a zaltoprofen concentration-dependent manner”.

What about the “caspase 3-positive cells” value (caspase 3 [11]) of the same compound?
Its value is “observed”.

And the “caspase 3-positive ratio” value (caspase 3 [12])?
The value was “concentration and administration time-dependent increases”.

And the Tunel-positive ratio (GCT cultured cells [13])?
The Tunel-positive ratio was “concentration and administration time-dependent increases”.

And the “cell proliferation (absorbance)” value [14]?
The value was “suppressed in a zaltoprofen or troglitazone concentration-dependent manner”.

And the “cell proliferation (absorbance at 450 nm)” value (GCT cultured cells [1]; 5, 10, 50, 100, and 200 μM, 24 hours)?
The value was “concentration-dependent suppression of the cell proliferation”.

What about the Tunel-positive ratio [15] of the same compound?
Its Tunel-positive ratio is “increased”.

And the “expression of PPARγ (PPARγ-positive images)” value (PPARγ [16])?
The value was “expression of PPARγ was successfully observed”.

And the “cell proliferation (absorbance)” value [17]?
The value was “suppressed in a zaltoprofen or troglitazone concentration-dependent manner”.

What about the “caspase 3-positive ratio” value (caspase 3 [18]) of the same compound?
The value was “increased”.

And the “expression of PPARγ (PPARγ-positive images)” value (PPARγ [19])?
The value was “expression of PPARγ was successfully observed”.

And the “positive images obtained with HCS LipidTOX Green Neutral Lipid Stain (differentiation into fat cells)” value [20]?
Its value is “increased”.

What about the “MRI image of the pelvic part (arrows)” value (osteoclastoma; after four months of administration) of the same compound?
The value was “tumor necrosis region”.

What about the “MRI image of the pelvic part (arrows)” value (osteoclastoma; after two months of administration) of the same compound?
The value was “tumor necrosis region”.

And the “caspase 3-positive ratio” value (caspase 3 [21])?
The value was “increased”.

What about the Tunel-positive ratio [22] of the same compound?
Its Tunel-positive ratio is “increased”.

What about the “effect of the drug on cell proliferation in the PPARγ siRNA addition group” value (PPARγ [23]) of the same compound?
Its value is “significantly suppressed”.

What about the “positive images obtained with HCS LipidTOX Green Neutral Lipid Stain (differentiation into fat cells)” value (GCT cultured cells [24]) of the same compound?
The value was “increased in a zaltoprofen concentration-dependent manner”.
